This note sets out measurements from US10696655B2, “Therapeutic compounds and uses thereof” (GENENTECH, INC., priority 2017, dated 2020).

Chain of CBP (Q92793 whole entry): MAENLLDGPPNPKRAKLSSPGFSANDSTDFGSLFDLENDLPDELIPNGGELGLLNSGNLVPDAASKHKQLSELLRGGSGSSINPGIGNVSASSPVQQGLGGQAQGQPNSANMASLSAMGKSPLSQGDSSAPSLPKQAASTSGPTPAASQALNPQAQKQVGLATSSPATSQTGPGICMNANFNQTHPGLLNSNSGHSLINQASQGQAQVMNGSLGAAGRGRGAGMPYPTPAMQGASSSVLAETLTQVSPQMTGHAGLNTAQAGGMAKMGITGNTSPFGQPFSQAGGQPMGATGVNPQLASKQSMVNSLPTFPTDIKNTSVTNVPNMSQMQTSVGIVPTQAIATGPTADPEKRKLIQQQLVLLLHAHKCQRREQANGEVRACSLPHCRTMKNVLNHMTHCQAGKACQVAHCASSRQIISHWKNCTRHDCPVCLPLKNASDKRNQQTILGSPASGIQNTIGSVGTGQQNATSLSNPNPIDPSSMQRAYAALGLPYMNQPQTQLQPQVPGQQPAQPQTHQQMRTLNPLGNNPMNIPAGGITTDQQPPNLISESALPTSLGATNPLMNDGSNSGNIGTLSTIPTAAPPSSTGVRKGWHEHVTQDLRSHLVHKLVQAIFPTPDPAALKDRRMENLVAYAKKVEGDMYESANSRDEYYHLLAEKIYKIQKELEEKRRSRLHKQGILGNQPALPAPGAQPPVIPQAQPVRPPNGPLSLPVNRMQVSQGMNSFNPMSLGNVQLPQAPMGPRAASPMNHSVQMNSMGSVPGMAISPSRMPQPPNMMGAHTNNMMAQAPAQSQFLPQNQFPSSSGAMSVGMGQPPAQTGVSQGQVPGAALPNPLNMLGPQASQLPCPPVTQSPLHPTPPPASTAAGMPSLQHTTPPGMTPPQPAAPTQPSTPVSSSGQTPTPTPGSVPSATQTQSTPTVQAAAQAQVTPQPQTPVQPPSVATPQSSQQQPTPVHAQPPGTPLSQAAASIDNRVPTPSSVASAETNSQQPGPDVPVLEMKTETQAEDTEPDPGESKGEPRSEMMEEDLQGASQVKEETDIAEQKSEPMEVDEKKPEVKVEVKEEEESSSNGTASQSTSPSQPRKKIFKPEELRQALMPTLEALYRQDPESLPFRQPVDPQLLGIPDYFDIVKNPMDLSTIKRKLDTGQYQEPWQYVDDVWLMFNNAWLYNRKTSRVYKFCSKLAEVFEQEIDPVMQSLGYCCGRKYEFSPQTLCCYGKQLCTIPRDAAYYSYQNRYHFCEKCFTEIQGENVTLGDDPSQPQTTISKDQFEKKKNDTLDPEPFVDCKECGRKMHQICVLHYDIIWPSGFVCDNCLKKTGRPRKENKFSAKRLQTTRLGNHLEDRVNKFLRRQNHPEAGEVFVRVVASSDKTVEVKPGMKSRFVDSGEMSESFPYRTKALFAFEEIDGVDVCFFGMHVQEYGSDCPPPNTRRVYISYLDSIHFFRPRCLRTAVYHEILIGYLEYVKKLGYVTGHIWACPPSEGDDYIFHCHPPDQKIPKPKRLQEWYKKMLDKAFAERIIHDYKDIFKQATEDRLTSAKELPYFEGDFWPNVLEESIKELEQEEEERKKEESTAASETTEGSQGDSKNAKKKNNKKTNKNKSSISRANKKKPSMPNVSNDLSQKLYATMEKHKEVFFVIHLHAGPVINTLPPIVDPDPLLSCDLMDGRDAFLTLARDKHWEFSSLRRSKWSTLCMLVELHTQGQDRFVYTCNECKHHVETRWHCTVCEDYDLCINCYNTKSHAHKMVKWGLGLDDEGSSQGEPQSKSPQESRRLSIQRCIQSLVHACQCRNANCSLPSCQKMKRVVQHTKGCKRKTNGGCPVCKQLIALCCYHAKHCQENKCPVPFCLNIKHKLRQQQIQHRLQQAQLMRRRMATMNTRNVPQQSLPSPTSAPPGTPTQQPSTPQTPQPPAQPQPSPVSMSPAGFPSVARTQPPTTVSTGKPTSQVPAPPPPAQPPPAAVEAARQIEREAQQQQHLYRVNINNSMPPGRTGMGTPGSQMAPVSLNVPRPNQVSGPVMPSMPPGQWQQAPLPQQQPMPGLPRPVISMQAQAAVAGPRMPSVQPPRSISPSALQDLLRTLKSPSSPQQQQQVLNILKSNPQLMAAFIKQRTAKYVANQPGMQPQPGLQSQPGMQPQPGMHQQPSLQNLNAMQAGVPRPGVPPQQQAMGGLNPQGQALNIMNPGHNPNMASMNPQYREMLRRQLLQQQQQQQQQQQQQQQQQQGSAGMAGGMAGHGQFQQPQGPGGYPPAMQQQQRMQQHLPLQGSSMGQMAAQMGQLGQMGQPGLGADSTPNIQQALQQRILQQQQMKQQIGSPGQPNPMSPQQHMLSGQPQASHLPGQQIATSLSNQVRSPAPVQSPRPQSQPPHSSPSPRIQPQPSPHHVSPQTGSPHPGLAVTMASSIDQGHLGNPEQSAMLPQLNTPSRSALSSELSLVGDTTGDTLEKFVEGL

This experiment concerns the target CBP (Homo sapiens (Human), UniProt Q92793). Briefly: CBP TR-FRET binding assay.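 Note: displacement of a biotinylated small-molecule ligand from purified recombinant CBP read by TR-FRET, DMSO-only wells as control, IC50 from nonlinear curve fit.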 The following applies: His/Flag tagged CBP 4 nM, biotin-ligand 60 nM; read-out: CBP HTRF IC50. (In TR-FRET formats the signal depends on donor and acceptor labels being close together.)
Description: IC50 Measurements for Inhibitors Using CBP TR FRET Binding Assay
His/Flag epitope tagged CBP was cloned, expressed, and purified to homogeneity. CBP binding and inhibition was assessed by monitoring the engagement of a biotinylated small molecule compound with the target using the TR-FRET assay technology (Perkin-Elmer). Specifically, in a 384 well ProxiPlate CBP (4 nM final) was combined with biotin-ligand (60 nM final) in 50 mM HEPES (pH 7.5), 50 mM NaCl, 1 mM TCEP, 0.01% (w/v) BSA, and 0.008% (w/v) Brij-35 either in the presence of DMSO (final 0.2% DMSO) or compound dilution series in DMSO. […] After twenty minutes of equilibration, the plates were read on an Envision instrument and IC50S calculated using a four parameter non-linear curve fit.
As to `CNC(=O)N1CCOc2ccc(-c3ccnc4ccccc34)cc2C1` [Example 4], the IC50 – broadly, the concentration that gives 50% inhibition – stood at 193 nM.

Consider `Cn1cc(-c2cc3c(cc2C(F)F)N(c2cnc4c(c2)n(C)c(=O)n4C)CCC3)cn1` [Example 25], for which the IC50 came out at 38 nM.

As for `CN1CCN(c2ccc3c(c2)n(C)c(=O)n3C)c2cc(C(F)(F)F)c(-c3cnn(C)c3)cc21` [Example 95, 1,3-dimethyl-5-(4-methyl-6-(1-methyl-1H-pyrazol-4-yl)-7-(trifluoromethyl)-3,4-dihydroquinoxalin-1(2H)-yl)-1H-benzo[d]imidazol-2(3H)-one], the IC50 was found to be 30 nM.

In the case of `CNC(=O)c1cn(C)c2cnc(N3CCCc4cc(-c5cnn(C)c5)c(C(F)F)cc43)nc12` [Example 61], the IC50 came to 26 nM.

Consider `C[C@H]1Nc2c(cccc2N2CCCc3cc(-c4cnn(C)c4)ccc32)NC1=O` [Example 82, (R)-3-methyl-5-(6-(1-methyl-1H-pyrazol-4-yl)-3,4-dihydroquinolin-1(2H)-yl)-3,4-dihydroquinoxalin-2(1H)-one], for which the IC50 turned out to be 325 nM.

In the case of `CC(=O)N1CCc2c(cc(-c3cccc4cc(-c5cnn(C)c5)ncc34)c(=O)n2C)C1` [Example 88, 6-acetyl-1-methyl-3-[3-(1-methylpyrazol-4-yl)-8-isoquinolyl]-7,8-dihydro-5H-1,6-naphthyridin-2-one], the IC50 was 258 nM.

As for `CNC(=O)N1CCOc2ccc(-c3cccc(-c4cnn(C)c4)c3C(F)F)cc2C1` [Example 77, 7-(2-(difluoromethyl)-3-(1-methyl-1H-pyrazol-4-yl)phenyl)-N-methyl-2,3-dihydrobenzo[f][1,4]oxazepine-4(5H)-carboxamide], the concentration for half-maximal inhibition (IC50) was found to be 187 nM.

With `CNC(=O)c1n[nH]c2ccc(N3CCCc4cc(-c5cnn(C)c5)c(C(F)F)cc43)nc12` [Example 71], the IC50 was determined as 187 nM.

Consider `CCc1cc(-c2ccccc2C)cc2c1OCCN(C(=O)NC)C2` [Example 109, 9-ethyl-N-methyl-7-(o-tolyl)-2,3-dihydrobenzo[f][1,4]oxazepine-4(5H)-carboxamide], for which the IC50 worked out at 273 nM.

Take `CCn1c(=O)n(C)c2ccc(N3CCCc4cc(-c5cnn(C)c5)c(C(F)F)cc43)cc21` [Example 32]: the IC50 was 48 nM.

Consider `Cn1cc(-c2cc3c(cc2C(F)F)N(c2cc(N4CCCCC4)c4c(c2)n(C)c(=O)n4C)CCC3)cn1` [Example 44], for which the IC50 was determined as 26 nM.

Take `CNC(=O)c1ccc2cncc(N3CCCc4cc(-c5cnn(C)c5)c(C(F)F)cc43)c2c1` [Example 119, 4-(7-(difluoromethyl)-6-(1-methyl-1H-pyrazol-4-yl)-3,4-dihydroquinolin-1(2H)-yl)-N-methylisoquinoline-6-carboxamide]: the IC50 was found to be 34 nM.

As to `Cn1cc(-c2ccc3c(c2)CCCN3c2ccc3sc(=O)n(C)c3c2)cn1` [Example 23], the IC50 was 317 nM.

As for `C#Cc1cc2c(cc1N1CCCc3cc(-c4cnn(C)c4)c(C(F)F)cc31)n(C)c(=O)n2C` [Example 102, 5-(7-(difluoromethyl)-6-(1-methyl-1H-pyrazol-4-yl)-3,4-dihydroquinolin-1(2H)-yl)-6-ethynyl-1,3-dimethyl-1H-benzo[d]imidazol-2(3H)-one], the 50% inhibitory concentration (IC50) amounted to 21 nM.

For the molecule `CN1Cc2c(cccc2N2CCCc3cc(-c4cnn(C)c4)c(C(F)F)cc32)NC1=O` [Example 116, 5-(7-(difluoromethyl)-6-(1-methyl-1H-pyrazol-4-yl)-3,4-dihydroquinolin-1(2H)-yl)-3-methyl-3,4-dihydroquinazolin-2(1H)-one], the IC50 turned out to be 26 nM.

Consider `CNC(=O)c1c[nH]c2cnc(N3CCCc4cc(-c5cnn(C)c5)c(C(F)F)cc43)nc12` [Example 70], for which the IC50 was 18 nM.

For the molecule `CNC(=O)C1CCc2c(c(N3CCCc4cc(-c5cnn(C)c5)c(C(F)F)cc43)nn2C2CCOCC2)C1` (stereo not shown) [Example 126, 3-(7-(difluoromethyl)-6-(1-methyl-1H-pyrazol-4-yl)-3,4-dihydroquinolin-1(2H)-yl)-N-methyl-1-(tetrahydro-2H-pyran-4-yl)-4,5,6,7-tetrahydro-1H-indazole-5-carboxamide], the IC50 was found to be 184 nM.

On to `Cn1cc(-c2cc3cccc(-c4ccc5c(c4)n(C)c(=O)n5C)c3cn2)cn1` [Example 94, 1,3-dimethyl-5-(3-(1-methyl-1H-pyrazol-4-yl)isoquinolin-8-yl)-1H-benzo[d]imidazol-2(3H)-one], for which the IC50 stood at 90 nM.

For `CNC(=O)N1CCOc2ccc(-c3c(F)ccc4[nH]ccc34)cc2C1` [Example 12], the IC50 came to 59 nM.

For `CC(=O)N1CCCc2cc(N3CCCc4cc(-c5cnn(C)c5)c(C(F)F)cc43)ccc21` [Example 87, 1-[6-[7-(difluoromethyl)-6-(1-methylpyrazol-4-yl)-3,4-dihydro-2H-quinolin-1-yl]-3,4-dihydro-2H-quinolin-1-yl]ethanone], the IC50 is 429 nM.

For the molecule `CC1C(=O)N(C)c2cc(N3CCCc4cc(-c5cnn(C)c5)c(C(F)F)cc43)ccc21` (stereo in doubt) [Example 93, (S)-6-[7-(difluoromethyl)-6-(1-methylpyrazol-4-yl)-3,4-dihydro-2H-quinolin-1-yl]-1,3-dimethyl-indolin-2-one], the IC50 was 95 nM.

As for `CNC(=O)c1cccc2oc(-c3cccc4cc(-c5cnn(C)c5)ncc34)nc12` [Example 121, N-methyl-2-(3-(1-methyl-1H-pyrazol-4-yl)isoquinolin-8-yl)benzo[d]oxazole-4-carboxamide], the IC50 was 274 nM.

`CNC(=O)c1cn(C)c2c(OC)cc(N3CCCc4cc(-c5cnn(C)c5)c(C(F)F)cc43)cc12` [Example 106, 5-(7-(difluoromethyl)-6-(1-methyl-1H-pyrazol-4-yl)-3,4-dihydroquinolin-1(2H)-yl)-7-methoxy-N,1-dimethyl-1H-indole-3-carboxamide]: the IC50 amounted to 16 nM.

For `CNC(=O)N1Cc2cc(N3CCCc4cc(-c5cnn(C)c5)c(C(F)F)cc43)ccc2OC(C)C1` (stereo not shown) [Example 114, 7-(7-(difluoromethyl)-6-(1-methyl-1H-pyrazol-4-yl)-3,4-dihydroquinolin-1(2H)-yl)-N,2-dimethyl-2,3-dihydrobenzo[f][1,4]oxazepine-4(5H)-carboxamide], the IC50 was 51 nM.

`Cn1cc(-c2cc3c(cc2C(F)F)N(c2cc(C4CC4)c4c(c2)n(C)c(=O)n4C)CCC3)cn1` [Example 38]: the IC50 is 16 nM.

Regarding `Cn1cc(-c2cc3c(cc2C(F)F)N(c2cnc4[nH]cc(-c5cnn(C)c5)c4n2)CCC3)cn1` [Example 74, 7-(difluoromethyl)-6-(1-methyl-1H-pyrazol-4-yl)-1-(7-(1-methyl-1H-pyrazol-4-yl)-5H-pyrrolo[2,3-b]pyrazin-2-yl)-1,2,3,4-tetrahydroquinoline], the IC50 was 108 nM.

Regarding `CCn1c(=O)n(C)c2cc(N3CCCc4cc(-c5cnn(C)c5)c(C(F)F)cc43)ccc21` [Example 31, 5-[7-(difluoromethyl)-6-(1-methylpyrazol-4-yl)-3,4-dihydro-2H-quinolin-1-yl]-1-ethyl-3-methyl-benzimidazol-2-one], the IC50 came to 172 nM.

Regarding `CNC(=O)c1ccc2c(c1)n(-c1cccc3cc(-c4cnn(C)c4)ncc13)c(=O)n2C` [Example 103, N,1-dimethyl-3-(3-(1-methyl-1H-pyrazol-4-yl)isoquinolin-8-yl)-2-oxo-2,3-dihydro-1H-benzo[d]imidazole-5-carboxamide], the IC50 worked out at 222 nM.

In the case of `CNC(=O)c1cn(C)nc1C(=O)Nc1cccc2cc(-c3cnn(C)c3)ncc12` [Example 124, N^4,1-dimethyl-N^3-(3-(1-methyl-1H-pyrazol-4-yl)isoquinolin-8-yl)-1H-pyrazole-3,4-dicarboxamide], the IC50 turned out to be 14 nM.

In the case of `CN1C(=O)C(=O)c2ccc(N3CCCc4cc(-c5cnn(C)c5)c(C(F)F)cc43)cc21` [Example 89, 6-[7-(difluoromethyl)-6-(1-methylpyrazol-4-yl)-3,4-dihydro-2H-quinolin-1-yl]-1-methyl-indoline-2,3-dione], the half-maximal inhibitory concentration (IC50) came out at 78 nM.

As to `CNC(=O)N1CCOc2ccc(-c3cccc4[nH]ncc34)cc2C1` [Example 14], the IC50 came to 102 nM.

As to `CC1C(=O)N(C)c2cc(N3CCCc4cc(-c5cnn(C)c5)c(C(F)F)cc43)ccc21` (stereo in doubt) [Example 92, (R)-6-[7-(difluoromethyl)-6-(1-methylpyrazol-4-yl)-3,4-dihydro-2H-quinolin-1-yl]-1,3-dimethyl-indolin-2-one], the IC50 is 42 nM.

Regarding `CNC(=O)N1CCOc2ccc(-c3cccc4cnn(C)c34)cc2C1` [Example 8], the IC50 came to 394 nM.

For `CNC(=O)N1CCN(C)c2ccc(-c3ccccc3C)cc2C1` [Example 85, N,1-dimethyl-7-(o-tolyl)-3,5-dihydro-2H-1,4-benzodiazepine-4-carboxamide], the IC50 came out at 450 nM.

On to `Cn1cc(-c2cc3c(cc2C(F)F)N(c2ccc4oc(=O)n(C)c4c2)CCC3)cn1` [Example 91, 5-[7-(difluoromethyl)-6-(1-methylpyrazol-4-yl)-3,4-dihydro-2H-quinolin-1-yl]-3-methyl-1,3-benzoxazol-2-one], for which the IC50 was 481 nM.

`CNC(=O)c1ccc2nccc(N3CCCc4cc(-c5cnn(C)c5)ccc43)c2c1` [Example 29]: the half-inhibitory concentration (IC50) came to 160 nM.

`CNC(=O)c1coc2ccc(N3CCCc4cc(-c5cnn(C)c5)c(C(F)F)cc43)cc12` [Example 73, 5-(7-(difluoromethyl)-6-(1-methyl-1H-pyrazol-4-yl)-3,4-dihydroquinolin-1(2H)-yl)-N-methylbenzofuran-3-carboxamide]: the IC50 came out at 80 nM.

Turning to `Cn1cc(-c2cc3c(cc2C(F)F)N(c2ccc4c(n2)n(C)c(=O)n4C)CCC3)cn1` [Example 26], the IC50 worked out at 2280 nM.

Consider `CNC(=O)[C@H]1CCc2ccc(N3CCCc4cc(-c5cnn(C)c5)c(C(F)F)cc43)nc21` [Example 117, (S)-2-(7-(difluoromethyl)-6-(1-methyl-1H-pyrazol-4-yl)-3,4-dihydroquinolin-1(2H)-yl)-N-methyl-6,7-dihydro-5H-cyclopenta[b]pyridine-7-carboxamide], for which the IC50 was 40 nM.

In the case of `Cn1cc(-c2cc3c(cc2C(F)F)N(c2cc4c(cn2)n(C)c(=O)n4C)CCC3)cn1` [Example 24], the concentration for half-maximal inhibition (IC50) was determined as 106 nM.
